# PubChem BioAssay AID328 (DTP/NCI, 2004)
# Several values for one entry are separate records, joined by “and”; a condition that tells them apart may be missing. Equal entries are not always repeated. Inconclusive results and toxic doses are left out.
# System: BDF1 mice, P388 leukemia ip, median survival T/C
# Assay: NCI In Vivo Anticancer Drug Screen. Data for tumor model P388 Leukemia (intraperitoneal) in B6D2F1 (BDF1) mice
# Conditions: endpoint: median survival time, higher = longer survival
# In short: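 Transplantable tumour in mice; compound vs vehicle dosing; survival scored; ratio of treated to control reported.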
# [1] = dose: 50.0 mg/kg/injection, schedule: Q01DX009 (ip), vehicle: saline with Tween-80
# [2] = dose: 100.0 mg/kg/injection, schedule: Q01DX009 (ip), vehicle: saline with Tween-80
# [3] = dose: 100.0 mg/kg/injection, schedule: Q04DX003 (ip), vehicle: saline with Tween-80
# [4] = dose: 200.0 mg/kg/injection, schedule: Q04DX003 (ip), vehicle: saline with Tween-80
# [5] = dose: 100.0 mg/kg/injection, schedule: Q01DX009 (ip), vehicle: Klucel (hydroxypropylcellulose) (HPC)
# [6] = dose: 100.0 mg/kg/injection, schedule: Q04DX003 (ip), vehicle: Klucel (hydroxypropylcellulose) (HPC)
# [7] = dose: 200.0 mg/kg/injection, schedule: Q04DX003 (ip), vehicle: Klucel (hydroxypropylcellulose) (HPC)
# [8] = dose: 400.0 mg/kg/injection, schedule: Q01DX009 (ip), vehicle: Klucel (hydroxypropylcellulose) (HPC)
# [9] = dose: 400.0 mg/kg/injection, schedule: Q04DX003 (ip), vehicle: Klucel (hydroxypropylcellulose) (HPC)
# [10] = dose: 200.0 mg/kg/injection, schedule: Q01DX009 (ip), vehicle: saline with Tween-80
# [11] = dose: 6.25 mg/kg/injection, schedule: Q01DX009 (ip), vehicle: Klucel (hydroxypropylcellulose) (HPC)
# [12] = dose: 12.5 mg/kg/injection, schedule: Q01DX009 (ip), vehicle: Klucel (hydroxypropylcellulose) (HPC)
smiles,measurement,setting,value
CCCN(/C=C/C=C/C=[N+](CCC)CCC)CCC,T/C,"dose: 0.03 mg/kg/injection, schedule: Q01DX009 (ip), vehicle: saline",99 % of control
same,T/C,"dose: 0.05 mg/kg/injection, schedule: Q01DX009 (ip), vehicle: saline",104 % of control
same,T/C,"dose: 0.1 mg/kg/injection, schedule: Q01DX009 (ip), vehicle: saline",106 % of control
CN(C)c1ccc(/C=C/c2ccnc3c(O)ccc(O)c23)cc1,T/C,[1],112 % of control
same,T/C,[2],124 % of control
CC(Br)C(=O)NC(CC(N)=O)C(=O)O (stereo unspecified),T/C,"dose: 50.0 mg/kg/injection, schedule: Q04DX003 (ip), vehicle: saline with Tween-80",100 % of control
same,T/C,[3],90 % of control
same,T/C,[4],100 % of control
Nc1ccc(S(=O)(=O)Nc2ccc(I)cc2)cc1,T/C,[5],90 % of control
same,T/C,[6],123 % of control
same,T/C,"dose: 200.0 mg/kg/injection, schedule: Q01DX009 (ip), vehicle: Klucel (hydroxypropylcellulose) (HPC)",104 % of control
same,T/C,[7],96 % of control
same,T/C,[8],100 % of control
same,T/C,[9],92 % of control
COC(=O)C1=COC(C)C2CN3CCc4c([nH]c5ccccc45)C3CC12 (stereo unspecified),T/C,"dose: 20.0 mg/kg/injection, schedule: Q01DX010 (ip), vehicle: saline",90 % of control
same,T/C,"dose: 40.0 mg/kg/injection, schedule: Q01DX010 (ip), vehicle: saline",90 % of control
same,T/C,"dose: 160.0 mg/kg/injection, schedule: Q01DX010 (ip), vehicle: saline",90 % of control
O=C1C(NCCO)=C(N2CC2)C(=O)C(NCCO)=C1N1CC1,T/C,"dose: 0.18 mg/kg/injection, schedule: Q01DX009 (ip), vehicle: saline",248 % of control and 93 % of control
same,T/C,"dose: 0.37 mg/kg/injection, schedule: Q01DX009 (ip), vehicle: saline",275 % of control and 203 % of control
same,T/C,"dose: 0.75 mg/kg/injection, schedule: Q01DX009 (ip), vehicle: saline",194 % of control
O=C(c1ccccc1)C1(C(=O)c2ccccc2)c2ccccc2-c2ccccc21,T/C,"dose: 50.0 mg/kg/injection, schedule: Q01DX005 (ip), vehicle: Klucel (hydroxypropylcellulose) (HPC)",101 % of control
same,T/C,"dose: 100.0 mg/kg/injection, schedule: Q01DX005 (ip), vehicle: Klucel (hydroxypropylcellulose) (HPC)",104 % of control
same,T/C,"dose: 200.0 mg/kg/injection, schedule: Q01DX005 (ip), vehicle: Klucel (hydroxypropylcellulose) (HPC)",101 % of control
c1ccc2c(c1)ccc1nc3c4ccccc4c4ccccc4c3nc12,T/C,[1],114 % of control
same,T/C,[2],113 % of control
same,T/C,[10],105 % of control
Cc1ccc(S(=O)(=O)N(CCC(=N)N)C(C)C)cc1,T/C,"dose: 12.5 mg/kg/injection, schedule: Q01DX009 (ip), vehicle: saline",95 % of control
same,T/C,"dose: 25.0 mg/kg/injection, schedule: Q01DX009 (ip), vehicle: saline",90 % of control
same,T/C,"dose: 25.0 mg/kg/injection, schedule: Q04DX003 (ip), vehicle: saline",104 % of control
same,T/C,"dose: 50.0 mg/kg/injection, schedule: Q01DX009 (ip), vehicle: saline",105 % of control
same,T/C,"dose: 50.0 mg/kg/injection, schedule: Q04DX003 (ip), vehicle: saline",100 % of control
CN(C)c1ccc(-c2c3ccccc3nc3ccccc23)cc1,T/C,[1],107 % of control
same,T/C,[2],115 % of control
same,T/C,[10],106 % of control
COC(=O)c1c(I)cccc1[N+](=O)[O-],T/C,[6],91 % of control
same,T/C,[7],95 % of control
same,T/C,[9],100 % of control
Cc1ccc(NC(=O)C(C)(C)C)c(C(O)(C(F)(F)F)C(F)(F)F)c1,T/C,"dose: 100.0 mg/kg/injection, schedule: Q01DX001 (ip), vehicle: saline with Tween-80",99 % of control
same,T/C,"dose: 200.0 mg/kg/injection, schedule: Q01DX001 (ip), vehicle: saline with Tween-80",106 % of control
same,T/C,"dose: 400.0 mg/kg/injection, schedule: Q01DX001 (ip), vehicle: saline with Tween-80",99 % of control
COc1cc2nccc3c4ccccc4n(c1=O)c23,T/C,"dose: 100.0 mg/kg/injection, schedule: Q01DX010 (ip), vehicle: saline",90 % of control
same,T/C,"dose: 200.0 mg/kg/injection, schedule: Q01DX010 (ip), vehicle: saline",90 % of control
same,T/C,"dose: 400.0 mg/kg/injection, schedule: Q01DX010 (ip), vehicle: saline",95 % of control
same,T/C,"dose: 800.0 mg/kg/injection, schedule: Q01DX010 (ip), vehicle: saline",100 % of control
CCCCNC(C)(C)C(=O)c1ccco1,T/C,[3],86 % of control
same,T/C,[4],100 % of control
COc1cc(C=Nc2cc(Cl)cc(Cl)c2)ccc1N(CCCl)CCCl,T/C,"dose: 132.0 mg/kg/injection, schedule: Q04DX003 (ip), vehicle: saline with Tween-80",163 % of control
same,T/C,[4],177 % of control
same,T/C,"dose: 300.0 mg/kg/injection, schedule: Q04DX003 (ip), vehicle: saline with Tween-80",177 % of control
CCOC(=O)CCCc1ccc(N=NN(C)C)cc1,T/C,"dose: 150.0 mg/kg/injection, schedule: Q04DX003 (ip), vehicle: saline",95 % of control
O=C(/C=C/c1ccccc1)c1ccccc1,T/C,[1],106 % of control
same,T/C,[2],104 % of control
same,T/C,[10],108 % of control
same,T/C,"dose: 400.0 mg/kg/injection, schedule: Q01DX009 (ip), vehicle: saline with Tween-80",109 % of control
C[C@]12CC[C@H](O)C=C1CC[C@@H]1[C@@H]2CC[C@]2(C)C(c3ccc(=O)oc3)CC[C@]12O (stereo partly specified),T/C,[11],96 % of control
same,T/C,[12],86 % of control
C(=C/c1ccc(/C=C/c2ccccc2)cc1)/c1ccccc1,T/C,"dose: 65.0 mg/kg/injection, schedule: Q01DX009 (ip), vehicle: Klucel (hydroxypropylcellulose) (HPC)",100 % of control
same,T/C,"dose: 66.7 mg/kg/injection, schedule: Q01DX009 (ip), vehicle: Klucel (hydroxypropylcellulose) (HPC)",111 % of control
same,T/C,[5],94 % of control and 95 % of control
same,T/C,[6],90 % of control
same,T/C,"dose: 150.0 mg/kg/injection, schedule: Q01DX009 (ip), vehicle: Klucel (hydroxypropylcellulose) (HPC)",100 % of control and 116 % of control
same,T/C,[7],110 % of control
same,T/C,[8],113 % of control
same,T/C,[9],105 % of control
CC(Cc1ccccc1)NC1CC2CCC1C2 (stereo unspecified),T/C,[11],104 % of control
same,T/C,[12],104 % of control
same,T/C,"dose: 25.0 mg/kg/injection, schedule: Q01DX009 (ip), vehicle: Klucel (hydroxypropylcellulose) (HPC)",113 % of control
Cc1cc(C)c([I+]c2c(C)cc(C)cc2C)c(C)c1,T/C,"dose: 0.28 mg/kg/injection, schedule: Q01DX009 (ip), vehicle: saline",118 % of control
same,T/C,"dose: 0.45 mg/kg/injection, schedule: Q04DX003 (ip), vehicle: saline",109 % of control
same,T/C,"dose: 0.56 mg/kg/injection, schedule: Q01DX009 (ip), vehicle: saline",118 % of control
same,T/C,"dose: 0.65 mg/kg/injection, schedule: Q04DX003 (ip), vehicle: saline",109 % of control
same,T/C,"dose: 1.1 mg/kg/injection, schedule: Q04DX003 (ip), vehicle: saline",120 % of control
same,T/C,"dose: 1.13 mg/kg/injection, schedule: Q01DX009 (ip), vehicle: saline",109 % of control
same,T/C,"dose: 1.65 mg/kg/injection, schedule: Q04DX003 (ip), vehicle: saline",120 % of control
same,T/C,"dose: 3.0 mg/kg/injection, schedule: Q01DX009 (ip), vehicle: Klucel (hydroxypropylcellulose) (HPC)",103 % of control
same,T/C,"dose: 3.0 mg/kg/injection, schedule: Q04DX003 (ip), vehicle: Klucel (hydroxypropylcellulose) (HPC)",112 % of control
same,T/C,"dose: 6.0 mg/kg/injection, schedule: Q01DX009 (ip), vehicle: Klucel (hydroxypropylcellulose) (HPC)",111 % of control
same,T/C,"dose: 6.0 mg/kg/injection, schedule: Q04DX003 (ip), vehicle: Klucel (hydroxypropylcellulose) (HPC)",100 % of control
same,T/C,"dose: 8.0 mg/kg/injection, schedule: Q04DX003 (ip), vehicle: Klucel (hydroxypropylcellulose) (HPC)",95 % of control
same,T/C,"dose: 8.0 mg/kg/injection, schedule: Q04DX003 (ip), vehicle: saline with Tween-80",120 % of control
same,T/C,"dose: 12.5 mg/kg/injection, schedule: Q04DX003 (ip), vehicle: Klucel (hydroxypropylcellulose) (HPC)",115 % of control
